The text below walks through data of US20190270712A1, “COMPOSITIONS FOR THE TREATMENT OF PULMONARY FIBROSIS” (Vectus Biosystems Limited, priority 2016, published 2019).

The subject of test [1] is human small airway epithelial cells. The test is described as follows: In vitro screening: xCELLigence SP cellular impedance (cell index). The settings on record: 10 μM, 20 μM or 30 μM test compound, 0.25% DMSO, measured every 20 seconds for 3 hours. It counts as cell-based. The procedure:
The xCELLigence SP system (Roche) was used to measure changes in cellular impedance (cell index) following the treatment of human small airway epithelial cells (ATCC) with test compound.
Briefly, 50 μl of cell culture medium (DMEM low glucose supplemented with 15% fetal bovine serum at 37° C.) was added to each well of an E-Plate 96 (Roche), and the background impedance in each well was measured. 50 μl of human small airway epithelial cell suspension (10,000 cells/well) was then added to the appropriate wells of the E-Plate 96. Cell index was monitored for each well of the E-Plate 96 in a RTCA SP Station within the cell culture incubator. After overnight incubation for 16-20 hours at 5% CO2 and 95% humidity, 100 μl of test compound solution (test compounds were prepared in DMSO and diluted with cell culture medium to a concentration of 10 μM, 20 μM or 30 μM of test compound with a final DMSO concentration of 0.25%) was added to the appropriate wells of the E-Plate 96 and cell index values were measured immediately following compound treatment every 20 seconds for 3 hours. Cell index value is baseline-corrected by subtracting the cell index of vehicle-treated cells and normalized by dividing by the cell index at the time point immediately before compound addition. Baseline normalized cell index as a function of time is plotted using Roche RTCA software.

Another test relates to lung fibrosis. The test is described as follows: In vivo screening: bleomycin-treated spontaneous hypertensive rats, lung fibrosis quantitated by histomorphometry (Masson Trichrome). The settings on record: SHR given bleomycin at 14 weeks, 500 pmol/kg/min in drinking solution (5% ethanol) for 4 weeks from 16 weeks of age; for Fibrosis in the lung compared to 16 week controls: vs 16 week control (reversal of established fibrosis); for Fibrosis in the lung compared to 20 week controls: vs 20 week vehicle control (prevention). The method, then:
Fourteen week old spontaneous hypertensive rats (SHR) were anaesthetised using 3% isoflurane, the tongue was gently pulled forward and bleomycin […] in 200 μL of normal saline placed in the distal oropharynx using a micropipette while the nose is gently closed. Rats were then left to recover from anaesthesia. At 16 weeks of age SHR were randomised to control (16 weeks or 20 weeks) or treated groups. The 16 week controls were anaesthetised and had blood sampled and tissues harvested. The 20 week controls received drinking solution alone (5% ethanol) while the treated groups received test compound dissolved in the drinking water with concentration adjusted twice weekly to maintain a dose of 500 pmol/kg/min for 4 weeks. At 20 weeks of age rats were anaesthetised and had blood sampled and tissues harvested.
For histological examination lungs were fixed in formalin and sections from each of two levels were stained using Masson Trichrome. Fibrosis was quantitated by histomorphometry by an observer blinded to experimental group.

On to `NC(CCc1cc(-c2ccccc2)ccc1-c1cccc(O)c1)C(F)(F)F` (stereo not drawn) [A6], for which the “Cellular impedance (baseline normalized cell index) response” value in test [1] was “Negative impedance responses”. Besides, in the test on lung fibrosis, the “Fibrosis in the lung compared to 16 week controls” value is “decreased” and the “Fibrosis in the lung compared to 20 week controls” value is “decreased”.
Regarding `O=C1NCCC1Cc1cc(-c2ccccc2)ccc1-c1cccc(O)c1` (stereo not drawn) [A26], the “Cellular impedance (baseline normalized cell index) response” value in test [1] is “Negative impedance responses”.
For `O=C1NCC/C1=C\c1cc(-c2ccccc2)ccc1-c1cccc(O)c1` [A27], the “Cellular impedance (baseline normalized cell index) response” value in test [1] is listed as “Negative impedance responses”.
With `O=C1CC(Cc2cc(-c3ccccc3)ccc2-c2cccc(O)c2)C(=O)N1` (stereo not drawn) [A30], the “Cellular impedance (baseline normalized cell index) response” value in test [1] is on record as “Negative impedance responses”.
As to `O=C1NC(=O)C(Cc2cc(-c3ccccc3)ccc2-c2cccc(O)c2)N1` (stereo not drawn) [A32], the “Cellular impedance (baseline normalized cell index) response” value in test [1] was “Negative impedance responses”. Also, in the test on lung fibrosis, the “Fibrosis in the lung compared to 16 week controls” value is given as “decreased” and the “Fibrosis in the lung compared to 20 week controls” value was “decreased”.
Take `Nc1nocc1Cc1cc(-c2ccccc2)ccc1-c1cccc(O)c1` [A35]: the “Cellular impedance (baseline normalized cell index) response” value in test [1] is “Negative impedance responses”.
Turning to `NOCCc1cc(-c2ccccc2)ccc1-c1cccc(O)c1` [A56], the “Cellular impedance (baseline normalized cell index) response” value in test [1] is “Negative impedance responses”.
As to `O=C1NC(=O)C(Cc2cc(-c3ccccc3)ccc2-c2cccc(O)c2)O1` (stereo not drawn) [A79], the “Cellular impedance (baseline normalized cell index) response” value in test [1] is reported as “Negative impedance responses”. In the test with lung fibrosis, the “Fibrosis in the lung compared to 16 week controls” value is reported as “decreased” and the “Fibrosis in the lung compared to 20 week controls” value was “decreased”.
`CS(=O)(=O)Nc1cc(NS(C)(=O)=O)cc(-c2ccc(-c3cncnc3)cc2CCC(N)=O)c1` [D4]: in test [1], the “Cellular impedance (baseline normalized cell index) response” value was “Negative impedance responses”.
Still for that read-out and setting: the same measure for `CCOC(=O)C(Cc1cc(-c2cncnc2)ccc1-c1cc(N)ncn1)C(=O)OCC` [D5, Diethyl (2-(6-aminopyrimidin-4-yl)-5-(pyrimidin-5-yl)benzyl)propanedioate]: “Negative impedance responses”.
With `NC(=O)CCc1cc(-c2cncnc2)ccc1-c1cc(N)ncn1` [D6, 3-(2-(6-Aminopyrimidin-4-yl)-5-(pyrimidin-5-yl)phenyl)propanamide], the “Cellular impedance (baseline normalized cell index) response” value in test [1] is “Negative impedance responses”. Besides, in the test on lung fibrosis, the “Fibrosis in the lung compared to 16 week controls” value is “decreased” and the “Fibrosis in the lung compared to 20 week controls” value is listed as “decreased”.
For the compound `CS(=O)(=O)Nc1cc(NS(C)(=O)=O)cc(-c2ccc(-c3cccnn3)cc2CCC(N)=O)c1` [D10], the “Cellular impedance (baseline normalized cell index) response” value in test [1] is reported as “Negative impedance responses”.
Take `CS(=O)(=O)Nc1cc(-c2ccc(-c3cccnn3)cc2CCC(N)=O)ccn1` [D11, 3-(2-(2-((Methylsulfonyl)amino)pyridin-4-yl)-5-(pyridazin-3-yl)phenyl)propanamide]: in test [1], the “Cellular impedance (baseline normalized cell index) response” value is listed as “negative deflection”.
Consider `NC(=O)CCc1cc(-c2cccnn2)ccc1-c1cc(N)ncn1` [D12, 3-(2-(6-Aminopyrimidin-4-yl)-5-(pyridazin-3-yl)phenyl)propanamide], for which the “Cellular impedance (baseline normalized cell index) response” value in test [1] is “Negative impedance responses”.
As to `CS(=O)(=O)NC1=CC(c2cccc(NS(C)(=O)=O)c2)(c2cnccn2)CC(CCC(N)=O)=C1` (stereo not drawn) [D16, 3-(3′,5-Bis((methylsulfonyl)amino)-1-(pyrazin-2-yl)biphenyl-3-yl)propanamide], the “Cellular impedance (baseline normalized cell index) response” value in test [1] was “Negative impedance responses”.
With `CS(=O)(=O)Nc1cc(-c2ccc(-c3cnccn3)cc2CCC(N)=O)ccn1` [D17, 3-[2-(2-[(Methylsulfonyl)amino]pyridin-4-yl)-5-(pyrazin-2-yl)phenyl]propanamide], the “Cellular impedance (baseline normalized cell index) response” value in test [1] is “Negative impedance responses”.
The same measure, in the same setting: the same measure for `NC(=O)CCc1cc(-c2cnccn2)ccc1-c1cc(N)ncn1` [D18, 3-(2-(6-Aminopyrimidin-4-yl)-5-(pyrazin-2-yl)phenyl)propanamide]: “Negative impedance responses”; for `CS(=O)(=O)Nc1cccc(-c2ccc(-c3cccnc3)cc2CCC(N)=O)c1` [D28, 3-(3′-((Methylsulfonyl)amino)-4-(pyridin-3-yl)biphenyl-2-yl)propanamide]: “Negative impedance responses”.
Regarding `NC(=O)CCc1cc(-c2cccnc2)ccc1-c1ccc2[nH]c(=O)[nH]c2c1` [D30, 3-(2-(2-Oxo-2,3-dihydro-1H-benzimidazol-5-yl)-5-(pyridin-3-yl)phenyl)propanamide], the “Cellular impedance (baseline normalized cell index) response” value in test [1] is on record as “Negative impedance responses”. Also, in the test on lung fibrosis, the “Fibrosis in the lung compared to 16 week controls” value is on record as “decreased” and the “Fibrosis in the lung compared to 20 week controls” value is “decreased”.
On to `CNS(=O)(=O)Nc1cccc(-c2ccc(-c3cccnc3)cc2CCC(N)=O)c1` [D31, 3-(3′-((Methylsulfamoyl)amino)-4-(pyridin-3-yl)biphenyl-2-yl)propanamide], for which the “Cellular impedance (baseline normalized cell index) response” value in test [1] is given as “Negative impedance responses”.
Regarding `Cc1nc(C)c(-c2ccc(-c3cccc(NS(C)(=O)=O)c3)c(CCC(N)=O)c2)s1` [D32, 4-(2,4-Dimethyl-1,3-thiazol-5-yl)-3-(3′-((methylsulfonyl)amino)biphenyl-2-yl)propanamide], in test [1], the “Cellular impedance (baseline normalized cell index) response” value was “Negative impedance responses”.
Turning to `CS(=O)(=O)Nc1cccc(-c2ccc(-c3ccc(F)cc3)cc2CCC(N)=O)c1` [D35, 3-(4″-Fluoro-3-((methylsulfonyl)amino)-1,1′:4′,1″-terphenyl-2′-yl)propanamide], the “Cellular impedance (baseline normalized cell index) response” value in test [1] is “Negative impedance responses”.
With `NC(=O)CCc1cc(-c2cccnc2)ccc1-c1cccc(NC(=O)Nc2cccc(-c3ccc(-c4cccnc4)cc3CCC(N)=O)c2)c1` [D167], the “Cellular impedance (baseline normalized cell index) response” value in test [1] is on record as “Negative impedance responses”.
For the compound `NC(=O)C=Cc1cc(-c2cncnc2)ccc1-c1ccnc(N)c1` [D171, 3-[2-(2-Aminopyridin-4-yl)-5-(pyrimidin-5-yl)phenyl]propenamide], the “Cellular impedance (baseline normalized cell index) response” value in test [1] was “Negative impedance responses”.
The same measure, in the same setting: the same measure for `NC(=O)C=Cc1cc(-c2cncnc2)ccc1-c1cc(N)cc(N)c1` [D172, 3-(2-(3,5-Diaminophenyl)-5-(pyrimidin-5-yl)phenyl)propenamide]: “Negative impedance responses”.
Consider `NC(=O)CCc1cc(-c2cnccn2)ccc1-c1cccc(O)c1` [P13, 3-[3′-Hydroxy-4-(pyrazin-2-yl)biphenyl-2-yl]propanamide], for which, in test [1], the “Cellular impedance (baseline normalized cell index) response” value is listed as “Negative impedance responses”. Moreover, the “Fibrosis in the lung compared to 20 week controls” value with lung fibrosis is “decreased”.
Consider `NC(=O)CCc1cc(-c2cccnn2)ccc1-c1cccc(O)c1` [P14, 3-[3′-Hydroxy-4-(pyridazin-3-yl)biphenyl-2-yl]propanamide], for which, in test [1], the “Cellular impedance (baseline normalized cell index) response” value is given as “Negative impedance responses”.
Same read-out and setting: for `NC(=O)CCc1cc(-c2ccncn2)ccc1-c1cccc(O)c1` [P25, 3-[3′-Hydroxy-4-(pyrimidin-4-yl)biphenyl-2-yl]propanamide] the value was “Negative impedance responses”; for `Cc1n[nH]c(C)c1-c1ccc(-c2cccc(O)c2)c(CCC(N)=O)c1` [P42], “Negative impedance responses”.
For `Cc1ccsc1-c1ccc(-c2cccc(O)c2)c(CCC(N)=O)c1` [P43], the “Cellular impedance (baseline normalized cell index) response” value in test [1] is recorded as “Negative impedance responses”.
`Cc1cscc1-c1ccc(-c2cccc(O)c2)c(CCC(N)=O)c1` [P44]: in test [1], the “Cellular impedance (baseline normalized cell index) response” value is reported as “Negative impedance responses”.
In the case of `NC(=O)CCc1cc(-c2ccccc2)ccc1-c1cccc(O)c1` [VB0004], the “Cellular impedance (baseline normalized cell index) response” value in test [1] is “Negative impedance responses”. In addition, in the test on lung fibrosis, the “Fibrosis in the lung compared to 16 week controls” value is “decreased” and the “Fibrosis in the lung compared to 20 week controls” value was “decreased”.
